According to PubChem BioAssay AID2060624 (Molecular Pharmacology Branch, DTP, NCI, 2025):

Tested on: 217524-143-R1-J4-PDC spheroids with HUVEC/MSC, viability
Assay: Anticancer human tumor 217524-143-R1-J4-PDC patient-derived pancreatic carcinoma cell line growth inhibition [CLK]
Conditions: for IC50: curve of first compound; for viability, T/C: stronger effect = lower value
Outline: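 Multi-cell-type spheroids combined patient-derived tumor cells with HUVEC endothelial cells and human mesenchymal stem cells. Paired agents were dosed in half-log steps down from about clinical Cmax, or from 10 microM where Cmax was unknown.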

[1] = second compound 0.0316 µM, first compound 0.0316 µM
[2] = second compound 0.0316 µM, first compound 0.1 µM
[3] = second compound 0.0316 µM, first compound 0.316 µM
[4] = second compound 0.0316 µM, first compound 1 µM
[5] = second compound 0.0316 µM, first compound 3.16 µM
[6] = second compound 0.0316 µM, first compound 10 µM
[7] = second compound 0.1 µM, first compound 0.0316 µM
[8] = second compound 0.1 µM, first compound 0.1 µM
[9] = second compound 0.1 µM, first compound 0.316 µM
[10] = second compound 0.1 µM, first compound 1 µM
[11] = second compound 0.1 µM, first compound 3.16 µM
[12] = second compound 0.1 µM, first compound 10 µM
[13] = second compound 0.316 µM, first compound 0.0316 µM
[14] = second compound 0.316 µM, first compound 0.1 µM
[15] = second compound 0.316 µM, first compound 0.316 µM
[16] = second compound 0.316 µM, first compound 1 µM
[17] = second compound 0.316 µM, first compound 3.16 µM
[18] = second compound 0.316 µM, first compound 10 µM
[19] = second compound 1 µM, first compound 0.0316 µM
[20] = second compound 1 µM, first compound 0.1 µM
[21] = second compound 1 µM, first compound 0.316 µM
[22] = second compound 1 µM, first compound 1 µM
[23] = second compound 1 µM, first compound 3.16 µM
[24] = second compound 1 µM, first compound 10 µM
[25] = second compound 3.16 µM, first compound 0.0316 µM
[26] = second compound 3.16 µM, first compound 0.1 µM
[27] = second compound 3.16 µM, first compound 0.316 µM
[28] = second compound 3.16 µM, first compound 1 µM
[29] = second compound 3.16 µM, first compound 3.16 µM
[30] = second compound 3.16 µM, first compound 10 µM
[31] = second compound 10 µM, first compound 0.0316 µM
[32] = second compound 10 µM, first compound 0.1 µM
[33] = second compound 10 µM, first compound 0.316 µM
[34] = second compound 10 µM, first compound 1 µM
[35] = second compound 10 µM, first compound 3.16 µM
[36] = second compound 10 µM, first compound 10 µM
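Note: spheroids exposed to agents for seven days before reading.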
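Throughout, for viability, T/C: 100% = DMSO vehicle control viability.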

`COc1cccc2c1C(=O)c1c(O)c3c(c(O)c1C2=O)CC(O)(C(=O)CO)CC3OC1CC(N)C(O)C(C)O1` (stereo unspecified) + CNC(=O)c1ccc(Nc2nc(OC3CCCC3)c3c(-c4ccc5nc(C)oc5c4)c[nH]c3n2)c(OC)c1 was tested, and the IC50 (second compound 0.0316 µM) was < 31.6 nM, the IC50 (second compound 0.1 µM) was < 31.6 nM and the IC50 (second compound 0.316 µM) was < 31.6 nM. For the same molecule, the IC50 (second compound 1 µM) was < 31.6 nM, the IC50 (second compound 3.16 µM) was < 31.6 nM and the IC50 (second compound 10 µM) was < 31.6 nM. The viability, T/C [1] was 32.9%, the viability, T/C [2] was 32.3% and the viability, T/C [3] was 25.3%. For the same molecule, the viability, T/C [4] was 17.2%, the viability, T/C [5] was 3.45% and the viability, T/C [6] was 0.92%. It also gave a viability, T/C [7] of 38.2%, a viability, T/C [8] of 33.7% and a viability, T/C [9] of 23%. The viability, T/C [10] was 18.9%, the viability, T/C [11] was 2.48% and the viability, T/C [12] was 1.28%. For the same molecule, the viability, T/C [13] was 32.2%, the viability, T/C [14] was 28.5% and the viability, T/C [15] was 16.5%. The viability, T/C [16] was 12.8%, the viability, T/C [17] was 2.83% and the viability, T/C [18] was 0.97%. The viability, T/C [19] was 25.2%, the viability, T/C [20] was 18.7% and the viability, T/C [21] was 11.8%. For the same molecule, the viability, T/C [22] was 7.57%, the viability, T/C [23] was 1.43% and the viability, T/C [24] was 0.99%. It also gave a viability, T/C [25] of 18.7%, a viability, T/C [26] of 16% and a viability, T/C [27] of 13%. It also gave a viability, T/C [28] of 6.9%, a viability, T/C [29] of 0.62% and a viability, T/C [30] of 1.17%. The viability, T/C [31] was 22.2%, the viability, T/C [32] was 14.7% and the viability, T/C [33] was 10.7%. It also gave a viability, T/C [34] of 6.9%, a viability, T/C [35] of 0.98% and a viability, T/C [36] of 1.5%.

With `Nc1ccn(C2OC(CO)C(O)C2(F)F)c(=O)n1` (stereo unspecified) + CNC(=O)c1ccc(Nc2nc(OC3CCCC3)c3c(-c4ccc5nc(C)oc5c4)c[nH]c3n2)c(OC)c1 the IC50 (second compound 0.0316 µM) was 47 nM, the IC50 (second compound 0.1 µM) was < 31.6 nM and the IC50 (second compound 0.316 µM) was < 31.6 nM. The IC50 (second compound 1 µM) was < 31.6 nM, the IC50 (second compound 3.16 µM) was < 31.6 nM and the IC50 (second compound 10 µM) was < 31.6 nM. For the same molecule, the viability, T/C [1] was 60.1%, the viability, T/C [2] was 31% and the viability, T/C [3] was 25.2%. For the same molecule, the viability, T/C [4] was 29.9%, the viability, T/C [5] was 30.4% and the viability, T/C [6] was 25.1%. It also gave a viability, T/C [7] of 35.3%, a viability, T/C [8] of 28.8% and a viability, T/C [9] of 20.8%. For the same molecule, the viability, T/C [10] was 33.2%, the viability, T/C [11] was 29% and the viability, T/C [12] was 28.1%. It also gave a viability, T/C [13] of 28.9%, a viability, T/C [14] of 25.1% and a viability, T/C [15] of 18.5%. It also gave a viability, T/C [16] of 23.5%, a viability, T/C [17] of 20.6% and a viability, T/C [18] of 21.3%. For the same molecule, the viability, T/C [19] was 24.8%, the viability, T/C [20] was 17.1% and the viability, T/C [21] was 13.6%. The viability, T/C [22] was 19.9%, the viability, T/C [23] was 13.3% and the viability, T/C [24] was 14.5%. The viability, T/C [25] was 21.8%, the viability, T/C [26] was 18.1% and the viability, T/C [27] was 11.2%. The viability, T/C [28] was 13.5%, the viability, T/C [29] was 14.3% and the viability, T/C [30] was 11.6%. For the same molecule, the viability, T/C [31] was 23.4%, the viability, T/C [32] was 18.6% and the viability, T/C [33] was 12.8%. The viability, T/C [34] was 10.8%, the viability, T/C [35] was 13.8% and the viability, T/C [36] was 11.8%.

With `O=c1[nH]cc(F)c(=O)[nH]1` + CNC(=O)c1ccc(Nc2nc(OC3CCCC3)c3c(-c4ccc5nc(C)oc5c4)c[nH]c3n2)c(OC)c1 the IC50 (second compound 0.0316 µM) was 768 nM, the IC50 (second compound 0.1 µM) was < 31.6 nM and the IC50 (second compound 0.316 µM) was < 31.6 nM. The IC50 (second compound 1 µM) was < 31.6 nM, the IC50 (second compound 3.16 µM) was < 31.6 nM and the IC50 (second compound 10 µM) was < 31.6 nM. For the same molecule, the viability, T/C [1] was 79.9%, the viability, T/C [2] was 86.3% and the viability, T/C [3] was 61.6%. The viability, T/C [4] was 48.3%, the viability, T/C [5] was 30.7% and the viability, T/C [6] was 29.1%. For the same molecule, the viability, T/C [7] was 40.4%, the viability, T/C [8] was 37.5% and the viability, T/C [9] was 39.4%. It also gave a viability, T/C [10] of 35.6%, a viability, T/C [11] of 30% and a viability, T/C [12] of 26.7%. The viability, T/C [13] was 32.3%, the viability, T/C [14] was 36.7% and the viability, T/C [15] was 31.5%. It also gave a viability, T/C [16] of 29.9%, a viability, T/C [17] of 29.1% and a viability, T/C [18] of 21.5%. For the same molecule, the viability, T/C [19] was 29.6%, the viability, T/C [20] was 26.7% and the viability, T/C [21] was 24.8%. It also gave a viability, T/C [22] of 21.9%, a viability, T/C [23] of 20.2% and a viability, T/C [24] of 13.9%. It also gave a viability, T/C [25] of 27%, a viability, T/C [26] of 30.4% and a viability, T/C [27] of 21.7%. For the same molecule, the viability, T/C [28] was 23.4%, the viability, T/C [29] was 18.5% and the viability, T/C [30] was 13.4%. For the same molecule, the viability, T/C [31] was 23.2%, the viability, T/C [32] was 27.4% and the viability, T/C [33] was 22.4%. The viability, T/C [34] was 22.6%, the viability, T/C [35] was 17.9% and the viability, T/C [36] was 13.1%.
